Data taken from ChEMBL document CHEMBL1147763, “Synthesis and biological activities of nucleoside-estradiol conjugates” (Bioorg Med Chem Lett, 2006).

How the values were obtained:
[1] = tested on: MCF7; experiment: Cytotoxicity against human breast cancer MCF7 cell line expressing ER; format: functional, cell-based
[2] = tested on: MDA-MB-231; experiment: Cytotoxicity against human breast cancer MDA-MB-231 cell line lacking ER; format: functional, cell-based
[3] = Cell survival against human breast cancer MDA-MB-231 cell line after 72h at 10 uM; format: ADME, cell-based; details: MDA-MB-231 breast cancer cells, read-out: Activity
[4] = Cell survival against human breast cancer MCF7 cell line after 72h at 10 uM; format: ADME, cell-based; details: MCF7 breast cancer cells, read-out: Activity

Row | Compound | Activity [1] | Activity [2] | viability at 72 h, 10 µM [3] | viability at 72 h, 10 µM [4]
1 | C[C@]12CC[C@@H]3c4ccc(O)cc4CC[C@H]3[C@@H]1CC[C@@H]2O | Not toxic | Not toxic | – | –
2 | C[C@]12CC[C@@H]3c4ccc(O)cc4CC[C@H]3[C@@H]1CC[C@@]2(O)C#Cc1cn([C@H]2C[C@H](O)[C@@H](CO)O2)c(=O)[nH]c1=O | Not toxic | Not toxic | – | –
3 | C[C@]12CC[C@@H]3c4ccc(O)cc4CC[C@H]3[C@@H]1CC[C@@]2(O)C#Cc1nc2c(N)ncnc2n1[C@H]1O[C@@H](CO)[C@H](O)[C@@H]1O | Not toxic | Not toxic | – | –
4 | C[C@]12CC[C@@H]3c4ccc(O)cc4CC[C@H]3[C@@H]1CC[C@@]2(O)C#CCCCCC#Cc1cn([C@@H]2O[C@H](CO)[C@@H](O)[C@H]2O)c(=O)[nH]c1=O | Not toxic | Not toxic | – | –
5 | O=c1[nH]cc(F)c(=O)[nH]1 [FLUOROURACIL] | – | – | 67% | 40%
6 | CC/C(=C(\c1ccccc1)c1ccc(OCCN(C)C)cc1)c1ccccc1 [TAMOXIFEN] | – | – | – | 72%
7 | C[C@]12CC[C@@H]3c4ccc(O)cc4CC[C@H]3[C@@H]1CC[C@@]2(O)C#Cc1cnc(O)nc1O | Not toxic | Not toxic | – | –
8 | C[C@]12CC[C@@H]3c4ccc(O)cc4CC[C@H]3[C@@H]1CC[C@@]2(O)C#CCCCCC#Cc1cnc(O)nc1O | Not toxic | Not toxic | – | –
9 | Cn1cc(C#C[C@]2(O)CC[C@H]3[C@@H]4CCc5cc(O)ccc5[C@H]4CC[C@@]32C)c(=O)n(C)c1=O | Not toxic | Not toxic | – | –
10 | C[C@]12CC[C@@H]3c4ccc(O)cc4CC[C@H]3[C@@H]1CC[C@@]2(O)C#CCCCCC#Cc1cn([C@H]2C[C@H](O)[C@@H](CO)O2)c(=O)[nH]c1=O | Not toxic | Not toxic | – | –
11 | Cn1cc(C#CCCCCC#C[C@]2(O)CC[C@H]3[C@@H]4CCc5cc(O)ccc5[C@H]4CC[C@@]32C)c(=O)n(C)c1=O | Not toxic | Not toxic | – | –
